Test: radiolabeling kinetics of the ligands with Bi-207 (radio-TLC)
Details: bismuth complexation, comparison among the four ligands
Experimental: The radiolabeling kinetics of the ligands L^py, L^pyd, L^pyr, and L^pz with bismuth ions was examined using Bi-207 (t1/2=32 years) because it has a much longer half life than Bi-213. Solutions having concentrations of 1, 10, 100, and 1000 micromolar (“μM”) of each of the ligands were prepared. Each solution was combined with 3 kBq of Bi-207. The reaction temperature was ambient room temperature (21±2° C.). Aliquots of each reaction mixture were obtained during the reaction and analyzed by radio-TLC. The rates of reaction (i.e. the radiolabeling kinetics) between the bismuth ions and the ligands were dependent on the individual ligand and also on the concentration of the ligand. At a ligand concentration of 1 μM, a maximum of 50% labeling was observed after 60 minutes. At a ligand concentration of 1000 micromolar, the reaction was nearly 100% complete (i.e. 100% of the ligand was labeled with Bi-207) after 5 minutes. FIG. 3 provides a graph of the radiolabeling kinetics for the four ligands at a ligand concentration of 100 μM. […] By comparison, chelation of Bi-213 with the known ligands DOTA and CHX-DTPA requires heating to 90° C.

In the case of `c1cnc(CN2CCN(Cc3cnccn3)CCN(Cc3cnccn3)CCN(Cc3cnccn3)CC2)cn1` [L^py, 1,4,7,10-Tetrakis(2-pyrazinylmethyl)-1,4,7,10-tetraazacyclododecane, reference compound], the “complexation kinetics (relative)” value is reported as “slowest”.

Reference: patent publication US10450336B2 (Los Alamos National Security, LLC, priority 2014, dated 2019)
